Experimental data: patent US8207198B2, “Substituted triazole derivatives as oxytocin antagonists” (Pfizer Inc., priority 2005, dated 2012)

Target: T1, oxytocin receptor (CHO-OTR/NFAT-β-Lactamase cells) (Homo sapiens, UniProt P30559)
T1 construct: expressed in transfected cells; host or cells: CHO-OTR cell line, further transfected with the NFAT-β-lactamase reporter construct
T1 sequence (P30559 1-389): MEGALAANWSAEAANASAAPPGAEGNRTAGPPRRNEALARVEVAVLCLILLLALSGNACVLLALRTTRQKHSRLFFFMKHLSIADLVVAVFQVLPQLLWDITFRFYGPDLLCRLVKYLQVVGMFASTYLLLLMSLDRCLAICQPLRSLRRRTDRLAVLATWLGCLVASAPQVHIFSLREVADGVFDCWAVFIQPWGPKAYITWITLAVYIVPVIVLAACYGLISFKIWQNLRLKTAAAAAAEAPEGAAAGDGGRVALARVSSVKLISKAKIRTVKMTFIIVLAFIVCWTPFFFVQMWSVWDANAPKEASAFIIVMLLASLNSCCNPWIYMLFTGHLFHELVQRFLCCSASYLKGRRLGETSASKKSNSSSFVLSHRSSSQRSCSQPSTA
Test: Oxytocin Receptor Beta-Lactamase Assay
Type: cell-based
Details: oxytocin stimulation, read-out: oxytocin antagonist activity, expressed as a Ki value
Description: A suitable assay for determining the oxytocin antagonist activity of a compound is detailed herein below.
Oxytocin Receptor Beta-Lactamase Assay
Cell Culture Cells used are CHO-OTR/NFAT-β-Lactamase. The NFAT-β-lactamase expression construct was transfected into the CHO-OTR cell line and clonal populations were isolated via fluorescence activated cell sorting (FACS). An appropriate clone was selected to develop the assay. Growth Medium 90% F12 Nutrient Mix, 15 mM HEPES 10% FBS 400 μg/ml Geneticin 200 μg/ml Zeocin 2 mM L-Glutamine Assay Media 99.5% F12 Nutrient Mix, 15 mM HEPES 0.5% FBS
Recovery of cells—A vial of frozen cells is thawed rapidly in 37° C. water bath and the cell suspension transferred into a T225 flask with 50 ml of fresh growth medium and then incubated at 37° C., 5% CO2 in an incubator until the cells adhered to the flask Replace media with 50 ml of fresh growth media the following day.
Culturing cells—CHO-OTR-NFAT-βLactamase cells were grown in growth medium. Cells were harvested when they reached 80-90% confluence removing the medium and washing with pre-warmed PBS. PBS was then removed and Trypsin/EDTA added (3 mls for T225 cm^2 flask) before incubating for 5 min in 37° C./5% CO2 incubator. When cells were detached, pre-warmed growth media was added (7 mls for T225 cm^2 flask) and the cells re-suspended and mixed gently by pipetting to achieve single cell suspension. The cells were split into T225 flask at 1:10 (for 3 days growth) and 1:30 (for 5 days growth) ratio in 35 ml growth medium.
Cells grown at 80-90% confluence were harvested and counted. Suspensions of cells at 2×10^5 cells/ml in growth medium were prepared and 30 μl of cells suspension added in 384-well, black clear-bottom plates. A blank plate containing diluents from each reagent was used for background subtraction.
Plates were incubated at 37° C., 5% CO2 overnight. […]
Preparation of 1 ml of 6× Loading Buffer with Enhanced Loading Protocol (this requires scale-up according to number of plates to be screened). • 12 μl of solution A (1 mM CCF4-AM in Dry DMSO) was added to […] of solution B (100 mg/ml Pluronic-F127 in DMSO+0.1% Acetic Acid) and vortexed. • The resulting solution was added to 925 μl of solution C (24% w/w PEG400, 18% TR40 v/v in water). • 75 μl of solution D was added (200 mM probenecid in 200 mM NaOH). • 10 μl of 6× Loading Buffer was added to all wells and incubated for 1.5 hrs-2 hrs at room temperature in the dark. • The plates were read using an LJL Analyst, Excitation 405 nm, Emission 450 nm and 530 nm, gain optimal, lagtime 0.40 μs integration, 4 flashes, bottom reading.

SMILES | Ki [nM]
COc1ccc(-n2c(C)nnc2N2CCC(Oc3ccc(F)cc3C)CC2)cn1 [Example 43] | 4.2
COCc1nnc(N2CC(Oc3cccc(C)c3C)C2)n1-c1ccc(OC)nc1 [Example 28] | 13.8
COCc1nnc(N2CC(Oc3ccc(F)cc3Cl)C2)n1-c1ccc(OC)nc1 [Example 25] | 9
COCc1nnc(N2CCC(Oc3cccc(F)c3C)CC2)n1-c1ccc(OC)nc1 [Example 48] | 1.8
